Assay [1] concerns wild type cardiac myocytes. Put plainly: Mitochondrial membrane potential (JC-1) after H2O2 in cardiac myocytes. Format: cell-based, mouse. The following applies: 20 min incubation with 0.5-1 μM peptide; calcium-free; 30 μM H2O2 5 min; FIG. 3(c). Here is the method:
Adult male C57BL/6J mice were anesthetized with pentobarbitone sodium (240 mg/kg) via intraperitoneal injection prior to excision of the heart. Ventricular myocytes were isolated. Mouse hearts were cannulated onto a Langendorff apparatus via the aorta and perfused retrogradely with Krebs-Henseleit Buffer (KHB) containing (in mM): 120 NaCl, 25 NaHCO3, 4.8 KCl, 2.2 MgSO4, 1.2 NaH2PO4 and 11 glucose (pH=7.35 with O2/CO2 at 37° C.) for 4 min at 37° C. Hearts were then perfused with KHB supplemented with 2.4 mg/ml collagenase B for 3 min, then 8 min perfusion in the presence of 40 μM calcium. […]
All in vitro studies were performed in freshly isolated myocytes at 37° C. […] Following a 20 min incubation with 0.5-1 μM AID(S)-TAT, AID-TAT, peptide 6 or peptide 7, fluorescent signal of individual myocytes was quantified using Metamorph 6.3 to measure signal intensity of manually traced cell regions. […]
Mitochondrial membrane potential (Ψm) was monitored in cardiac myocytes by assessing alterations in 5,5′,6,6′-tetrachloro-1,1′,3,3′-tetraethylbenzimidazolylcarbocyanine iodide fluorescence (JC-1: 200 nM, ex 480 nm, em 580/535 nm, Molecular Probes). […] Ratiometric 580/535 nm fluorescent signal was quantified and reported as a percentage from the baseline pre-treatment average. […]

The subject of another assay is cTnI-G203S mice. Kind of assay: Echocardiography of pre-cardiomyopathic cTnI-G203S mice (Example 15). Format: in vivo, mouse. The note with it: 5 μM, 3×/wk/5 wk, FIG. 15. From the text:
Twenty to thirty week-old male mice expressing the human cTnI gene encoding the human disease-causing cTnI-G203S were generated and used for the in vivo studies. By way of background, the mice develop hallmark features of HCM between 20 and 25 weeks (Viola H, Johnstone V, Cserne Szappanos H, Richman T, Tsoutsman T, Filipovska A, et al. The L-type Ca(2+) channel facilitates abnormal metabolic activity in the cTnI-G2035 mouse model of hypertrophic cardiomyopathy. J Physiol. 2016; 594(14):4051-70; Viola H M, Shah A A, Johnstone V P A, Cserne Szappanos H, Hodson M P, Hool L C. Characterization and validation of a preventative therapy for hypertrophic cardiomyopathy in a murine model of the disease. Proc Nati Aced Sci U S A. 2020; 117(37):23113-24; Tsoutsman T, Chung J, Doolan A, Nguyen L, Williams IA, Tu E, et al. Molecular insights from a novel cardiac troponin I mouse model of familial hypertrophic cardiomyopathy. J Mol Cell Cardiol. 2006; 41(4):623-32). Age-matched male mice expressing the normal human troponin I gene were used as controls and indicated as wild-type (wt). For in vivo studies, 20-week old cTnI-G203S mice were treated with 10 μM AID(S)-TAT (2 mg/kg) or 5 μM AID-TAT mutant peptides via intraperitoneal injection, 3 times per week for a total duration of 5 weeks. The peptide was dissolved in phosphate buffered saline solution (PBS), and the total amount of the 10 μM AID-TAT mutant peptides administered over 5 weeks was 0.9 mg. The total amount of the 5 μM AID-TAT mutant peptides administered over 5 weeks was 0.45 mg Male mice were utilized to eliminate potential differences in responses due to gender. The number of mice used is indicated by N.
Echocardiographic studies to measure left ventricular function were performed on mice under light methoxyflurane anaesthesia with the use of an i13L probe on a Vivid™ 7 IQ ultrasound system (GE Healthcare, Little Chalfont, UK) as previously described (Viola H, Johnstone V, Cserne Szappanos H, Richman T, Tsoutsman T, Filipovska A, et al. The L-type Ca(2+) channel facilitates abnormal metabolic activity in the cTnI-G2035 mouse model of hypertrophic cardiomyopathy. J Physiol. 2016; 594(14):4051-70; Viola H M, Shah A A, Johnstone V P A, Cserne Szappanos H, Hodson M P, Hool L C. Characterization and validation of a preventative therapy for hypertrophic cardiomyopathy in a murine model of the disease. Proc Natl Acad Sci U S A. 2020; 117(37):23113-24; Viola H M, Johnstone V P A, Cserne Szappanos H, Richman T R, Tsoutsman T, Filipovska A, et al. The Role of the L-Type Ca(2+) Channel in Altered Metabolic Activity in a Murine Model of Hypertrophic Cardiomyopathy. JACC Basic Transl Sci. 2016; 1(1-2):61-72). Each N represents the average of quantitative measurements from wt or cTnI-G203S mice for each treatment group.

“Also recorded” adds a separate entry of the source.

On to “AIDP7-TAT: QQQEEDLKGYLDWITQAE with TAT sequence”, for which the “mitochondrial membrane potential (JC-1)” value in assay [1] is “reduced the mitochondrial membrane potential”. Moreover, the IVDS entry with cTnI-G203S mice is “trend toward increased LVEDd and LVEDs, and decreased IVDS”. Also, in the assay on cTnI-G203S mice (versus AID(S)-TAT), the “EF, ejection fraction” value is given as “effectively restored”; the “FS, fractional shortening” value is listed as “effectively restored”; the “IVSs, intraventricular septum in systole” value was “significant decrease; also recorded: effectively restored”; the “LVEDd, left ventricular end diameter during diastole” value was “trend toward increased LVEDd and LVEDs, and decreased IVDS”. In addition, in the assay on cTnI-G203S mice (versus AID(S)-TAT), the “LVEDs, left ventricular end diameter during systole” value was “trend toward increased LVEDd and LVEDs, and decreased IVDS”; the “LVPWd, left ventricular posterior wall in diastole” value is “effectively restored”; the “LVPWs, left ventricular posterior wall in systole” value is “effectively restored; also recorded: significant decrease”.

For the origin of these results see US20240158447A1, “PEPTIDES FOR USE IN THE TREATMENT OR PREVENTION OF MYOCARDIAL DAMAGE” (THE UNIVERSITY OF WESTERN AUSTRALIA, priority 2020, published 2024).
